Measured values taken from ChEMBL document CHEMBL1201862, “PubChem BioAssay data set” (2004).
The source made the active and inactive calls.

Columns and labels:
Kallikrein-7 = Kallikrein-7 (Homo sapiens, UniProt P49862); assay: Fluorescence Intensity-based biochemical primary high throughput dose response assay to identify activators of kallikrein-7 (K7) zymogen.
[1] = optical artefact potency, substrate without enzyme – biochemical, fluorescence intensity, triplicate, artefact control for kallikrein-7 zymogen activator project, dose response (AID 720493)
[2] = A549 lung cell viability reduction – CellTiter-Glo luminescence, cherry-pick, cytotoxicity control, dose response (AID 743484); assay type: functional, cell-based
[3] = biological target: T1, Calpain-2 catalytic subunit (Sus scrofa, UniProt P43367); assay: m-calpain protease blockers, concentration series – biochemical, fluorogenic peptide substrate, dose response (AID 1420); assay type: functional
T1 sequence (P43367 whole entry): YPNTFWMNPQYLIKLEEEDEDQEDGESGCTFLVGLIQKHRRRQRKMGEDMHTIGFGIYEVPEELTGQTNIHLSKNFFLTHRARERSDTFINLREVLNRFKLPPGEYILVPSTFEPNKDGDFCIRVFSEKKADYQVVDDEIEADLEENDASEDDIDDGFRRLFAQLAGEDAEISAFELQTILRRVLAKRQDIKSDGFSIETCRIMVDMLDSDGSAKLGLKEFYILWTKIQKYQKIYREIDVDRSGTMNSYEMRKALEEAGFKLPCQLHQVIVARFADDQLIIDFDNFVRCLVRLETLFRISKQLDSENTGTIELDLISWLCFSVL

[4] = HepG2 viability loss by ATP level – cell-based, CellTiter-Glo luminescence, cherry-pick, set 4, cytotoxicity control, dose response (AID 743480); assay type: functional
[5] = ATP-based viability loss in HEK293T cells – cell-based, CellTiter-Glo luminescence, cherry-picked samples, set 4, cytotoxicity control, dose response (AID 743441); assay type: functional; conditions: HEK293
[6] = off-target signal loss in HeLa-CEM21 co-culture – HeLa F-luc CTL cells, cherry-picked, counter-screen for HIV-1 Env fusion inhibitor project, dose response (AID 652040); assay type: functional, cell-based;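 further: potency for signal decrease marking cytotoxic or nonspecific inhibition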
cells [7] = assay type: functional, cell-based; conditions: HEK-CNG
[8] = blockers of HIV-1 ZM109 envelope-driven cell-cell fusion – HeLa effector, CEM target cells, luciferase, cherry-pick, dose response (AID 652058); assay type: functional, cell-based;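 further: luciferase signal from HIV-1 Env mediated cell-cell fusion of effector and target cells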
[9] = blockers of HIV-1 envelope-mediated cell-cell fusion – cherry-pick, dose response (AID 652057); assay type: functional, cell-based
Galanin receptor type 3 = Galanin receptor type 3 (Homo sapiens, UniProt O60755); assay: Fluorescence-based cell-based primary high throughput dose response assay to identify antagonists of the Galanin Receptor 3 (GalR3).; assay type: functional
Jurkat = assay: blockers of NF-kB activation in T cells – Jurkat, luciferase reporter, luminescence, B- and T-cell, dose response (AID 489004); assay type: functional, cell-based; conditions: Homo sapiens;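 further: NF-kB luciferase reporter Jurkat cells stimulated with PMA plus ionomycin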
[10] = HEK-293T viability loss, compound-treated – cell-based, uHTS hits, cytotoxicity control for B/T-cell NF-kB inhibitor project, dose response (AID 489019); assay type: functional;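 further: IC50 reflects cytotoxicity as loss of cell viability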
[11] = HIV-1 AD8 envelope cell-cell fusion blockers – cherry-pick, dose response (AID 652062); assay type: functional, cell-based;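 further: luciferase signal from cell-cell fusion driven by HIV-1 clade B AD8 Env; potency is for inhibitors of fusion seen as a drop in luminescence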
[12] = IC50 of Artemis nuclease activity blockers – biochemical, fluorescence intensity, dose response (AID 720701); assay type: functional;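 further: Artemis endonuclease enzyme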
[13] = loss of viability in HepG2 cells – cell-based, CellTiter-Glo, cherry-picked, cytotoxicity control for Shn3 inhibitor project, dose response (AID 624134); assay type: functional
[14] = EF1alpha-driven Renilla reporter with control 3'UTR suppression – Clone20-Shn3RL cells, dual-Glo, cherry-pick, set 2, counter-screen for Shn3 3'UTR targeting project, dose response (AID 720724); assay type: functional, cell-based; conditions: Dual-Go Shn3RL
INS1 = assay: INS-1E survival protection against cytokine death – cell-based, luminescence, retest, dose response (AID 449756); assay type: functional; conditions: Rattus norvegicus;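 further: cell death triggered by IL-1 beta plus TNF-alpha plus IFN-gamma mixture; protective hits raise ATP signal compared with cytokine alone wells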
Cytochrome P450 3A4 = Cytochrome P450 3A4 (Homo sapiens, UniProt P08684);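 further: CYP3A4 tested as one member of a cytochrome P450 panel screen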
[15] = non-specific 3'UTR reporter inhibition in Clone20-Shn3RL – cell-based, Renilla luciferase, cherry-picked, counter-screen for Shn3 inhibitor project, dose response (AID 624133); assay type: functional
[16] = Shn3 3'UTR reporter signal decrease – cell-based, Clone20 osteoblasts, firefly luciferase, cherry-pick, set 2, Schnurri-3 inhibitor project, dose response (AID 720490); assay type: functional;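 further: actives lower the luminescence signal as inhibitors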
[17] = reduction of Shn3 3'UTR-driven luciferase in osteoblasts – cell-based, Clone20 osteoblasts, firefly luciferase, cherry-picked, dose response (AID 624132); assay type: functional;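 further: firefly luciferase luminescence from reporter carrying the Shn3 3'UTR in osteoblasts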
[18] = biological target: Luciferin 4-monooxygenase (Photinus pyralis, UniProt P08659); assay: inhibition of purified Photinus pyralis luciferase – biochemical, luminescence, dose response (AID 1891)
[19] = biological target: Dual specificity tyrosine-phosphorylation-regulated kinase 1A (Rattus norvegicus, UniProt Q63470); assay type: biochemical, Homo sapiens
[20] = biological target: T2, Trace amine-associated receptor 1 (Homo sapiens, UniProt Q96RJ0); assay: Counterscreen for agonists of the human trace amine associated receptor 1 (hTAAR1): Fluorescence-based cell-based high throughput dose response assay to identify hTAAR1 agonist that also desensitize TAAR1 receptor response.; assay type: functional
T2 sequence (Q96RJ0 whole entry): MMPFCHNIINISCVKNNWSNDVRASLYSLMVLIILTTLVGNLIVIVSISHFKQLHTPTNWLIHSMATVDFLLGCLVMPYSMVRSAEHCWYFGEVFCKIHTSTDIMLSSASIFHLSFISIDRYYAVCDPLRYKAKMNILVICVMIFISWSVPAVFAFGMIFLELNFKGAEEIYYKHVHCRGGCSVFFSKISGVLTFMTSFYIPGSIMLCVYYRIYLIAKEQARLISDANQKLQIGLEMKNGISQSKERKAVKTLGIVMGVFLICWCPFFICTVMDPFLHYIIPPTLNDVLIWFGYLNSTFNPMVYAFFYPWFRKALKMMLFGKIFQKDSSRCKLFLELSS

[21] = Luminescence Cell-Based Dose Confirmation HTS to Identify Inhibitors of Platelet Dense Granule Release. [Related pubchem assays: 1663 (Primary HTS), 1678 (Summary of Project)]; assay type: functional
cells [22] = assay type: functional, cell-based
[23] = biological target: T2, Trace amine-associated receptor 1; assay: Fluorescence-based cell-based high throughput dose response assay to identify agonists of the human trace amine associated receptor 1 (TAAR1).; assay type: functional
[24] = viability loss in HepG2 hepatoma cells – cell-based, ATP luminescence, cherry-pick, activator set 2, cytotoxicity control, dose response (AID 1053143); assay type: functional
cells [25] = assay type: functional, cell-based; remark: listed apart in the source
[26] = COV434 cell viability loss – plate reader, dry powder, SA7, cytotoxicity control for PAX8 inhibitor project, dose response (AID 743145); assay type: functional, cell-based
[27] = toxicity toward immortalized ovarian surface epithelium – cell-based, plate reader, dry powder samples, cytotoxicity control for PAX8 inhibitor project, dose response (AID 743045); assay type: functional
[28] = OVCAR4 cell viability loss – plate reader, dry powder, SA11, cytotoxicity control for PAX8 inhibitor project, dose response (AID 743150); assay type: functional, cell-based; conditions: OVCAR-4
cells [29] = assay type: functional, cell-based; remark: listed apart in the source
[30] = IGROV1 cell killing – plate reader, dry powder samples, PAX8 inhibitor project, dose response (AID 743043); assay type: functional, cell-based; conditions: IGROV-1
[31] = general cell-killing toxicity readout – plate reader, dry powder samples, cytotoxicity control for PAX8 inhibitor project, dose response (AID 743021); assay type: functional, cell-based
[32] = OVCAR-3 cell viability loss – plate reader, dry powder samples, PAX8 inhibitor project, dose response (AID 743044); assay type: functional, cell-based
[33] = viability loss in HEK293T cells – cell-based, cherry-picks, cytotoxicity control for HIV Vif inhibitor project, dose response (AID 652208); assay type: functional
cells [34] = assay type: functional, cell-based; remark: listed apart in the source
[35] = OV-90 cell viability loss – plate reader, dry powder, SA8, PAX8 inhibitor project, dose response (AID 743149); assay type: functional, cell-based
[36] = COV362 cell viability loss – plate reader, dry powder, SA12, cytotoxicity control for PAX8 inhibitor project, dose response (AID 743144); assay type: functional, cell-based
[37] = PAX8-dependent cell viability loss – plate reader, dry powder, dose response (AID 743049); assay type: functional, cell-based
Paired box protein Pax-8 = Paired box protein Pax-8 (Homo sapiens, UniProt Q06710); assay: PAX8 transcriptional activity inhibition in RMG-I – RMG-I cells, luciferase, cherry-pick, dose response (AID 687027); assay type: functional, cell-based;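 further: luciferase reporter driven by Pax8 target thyroperoxidase promoter measured by SteadyGlo luminescence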
cells [38] = conditions: A549
[39] = HEK293 Cytotoxicity Assay Measured in Cell-Based System Using Plate Reader - 7071-01_Inhibitor_Dose_CherryPick_Activity_Set2.; assay type: functional
HEK293 = assay: viability loss in HEK293T cells – cell-based, ATP luminescence, cherry-pick samples, cytotoxicity control, dose response (AID 687005); assay type: functional; conditions: Homo sapiens;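 further: cells exposed to compound for 48 hours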
HeLa = assay: viability loss in HeLa cells – cell-based, ATP luminescence, cherry-pick samples, cytotoxicity control, dose response (AID 687004); assay type: functional; conditions: Homo sapiens

Sequence of Kallikrein-7 (P49862 whole entry): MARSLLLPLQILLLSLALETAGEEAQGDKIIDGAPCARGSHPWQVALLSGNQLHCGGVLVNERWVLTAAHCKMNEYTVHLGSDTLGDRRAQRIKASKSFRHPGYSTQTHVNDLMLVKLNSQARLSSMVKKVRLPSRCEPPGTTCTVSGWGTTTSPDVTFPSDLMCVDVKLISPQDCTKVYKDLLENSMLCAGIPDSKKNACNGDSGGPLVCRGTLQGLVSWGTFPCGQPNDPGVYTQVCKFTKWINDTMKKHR
Sequence of Cytochrome P450 3A4 (P08684 whole entry): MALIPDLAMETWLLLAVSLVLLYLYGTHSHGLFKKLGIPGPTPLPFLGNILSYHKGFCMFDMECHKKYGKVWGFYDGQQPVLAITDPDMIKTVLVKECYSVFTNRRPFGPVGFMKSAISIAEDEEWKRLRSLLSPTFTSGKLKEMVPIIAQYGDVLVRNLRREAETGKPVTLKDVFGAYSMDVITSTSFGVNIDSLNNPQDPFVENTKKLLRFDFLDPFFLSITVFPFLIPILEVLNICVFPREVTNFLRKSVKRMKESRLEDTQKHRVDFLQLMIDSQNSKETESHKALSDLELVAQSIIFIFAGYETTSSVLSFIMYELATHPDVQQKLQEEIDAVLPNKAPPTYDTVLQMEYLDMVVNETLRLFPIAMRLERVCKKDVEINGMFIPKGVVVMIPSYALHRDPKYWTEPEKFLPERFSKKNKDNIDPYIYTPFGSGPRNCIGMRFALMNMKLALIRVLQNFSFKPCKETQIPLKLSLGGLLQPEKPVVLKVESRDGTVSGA
Sequence of Luciferin 4-monooxygenase (P08659 whole entry): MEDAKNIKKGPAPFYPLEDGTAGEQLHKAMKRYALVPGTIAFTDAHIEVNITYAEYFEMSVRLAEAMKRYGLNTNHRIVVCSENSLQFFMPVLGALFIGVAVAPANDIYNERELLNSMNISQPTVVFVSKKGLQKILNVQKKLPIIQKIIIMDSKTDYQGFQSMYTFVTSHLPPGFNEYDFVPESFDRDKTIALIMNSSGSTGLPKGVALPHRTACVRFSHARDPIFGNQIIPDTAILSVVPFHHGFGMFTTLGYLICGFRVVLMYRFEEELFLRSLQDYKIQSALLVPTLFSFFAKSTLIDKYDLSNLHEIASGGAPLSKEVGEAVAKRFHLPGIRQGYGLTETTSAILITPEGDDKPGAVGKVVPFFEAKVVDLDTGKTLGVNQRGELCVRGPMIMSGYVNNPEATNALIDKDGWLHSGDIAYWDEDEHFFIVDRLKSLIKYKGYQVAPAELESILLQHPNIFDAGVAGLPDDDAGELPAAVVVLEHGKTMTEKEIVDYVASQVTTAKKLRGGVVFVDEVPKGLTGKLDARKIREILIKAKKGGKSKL
Sequence of Galanin receptor type 3 (O60755 whole entry): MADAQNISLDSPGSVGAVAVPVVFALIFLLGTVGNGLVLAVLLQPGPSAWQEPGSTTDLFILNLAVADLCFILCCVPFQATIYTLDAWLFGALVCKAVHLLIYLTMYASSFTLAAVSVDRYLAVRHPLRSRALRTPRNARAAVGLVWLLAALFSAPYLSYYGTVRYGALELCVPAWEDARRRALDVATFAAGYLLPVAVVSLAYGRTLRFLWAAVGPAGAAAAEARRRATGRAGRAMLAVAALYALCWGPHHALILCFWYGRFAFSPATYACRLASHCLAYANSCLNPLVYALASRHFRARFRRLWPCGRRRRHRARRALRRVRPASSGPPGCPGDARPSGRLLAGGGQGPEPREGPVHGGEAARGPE
Sequence of Paired box protein Pax-8 (Q06710 whole entry): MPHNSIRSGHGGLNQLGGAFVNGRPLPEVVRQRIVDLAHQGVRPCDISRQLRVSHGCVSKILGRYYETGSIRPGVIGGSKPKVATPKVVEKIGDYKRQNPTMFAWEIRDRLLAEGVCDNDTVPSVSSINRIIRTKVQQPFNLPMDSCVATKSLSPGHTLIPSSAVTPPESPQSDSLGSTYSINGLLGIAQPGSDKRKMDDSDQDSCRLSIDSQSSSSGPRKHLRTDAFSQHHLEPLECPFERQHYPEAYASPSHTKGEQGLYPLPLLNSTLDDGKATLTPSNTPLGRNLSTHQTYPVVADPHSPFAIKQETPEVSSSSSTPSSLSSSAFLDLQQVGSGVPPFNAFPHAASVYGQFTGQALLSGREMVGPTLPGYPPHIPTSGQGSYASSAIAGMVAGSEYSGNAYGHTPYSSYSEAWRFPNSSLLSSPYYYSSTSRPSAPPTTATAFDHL

With `COc1ccc(-c2cc(-c3ccccc3)n3ncnc3n2)cc1` the EC50 (Kallikrein-7) was > 69.5 µM (inactive) and the EC50 [1] was > 7.72 µM (active).
With `O=C(COC(=O)c1cccc(O)c1)Nc1ccc(Cl)cc1C(=O)c1ccccc1` the AC50 [2] was 32.3 µM (active), the IC50 [3] was 17.9 µM (not active) and the AC50 [4] was > 52 µM (inactive). For the same compound, the AC50 [5] was > 52 µM (inactive).
In the case of `Cc1cc(CSc2ccccc2)ccc1NC(=O)c1ccc(CN2CCOCC2)cc1`, the AC50 [6] is reported as 1.75 µM (active), the EC50 (cells [7]) is reported as > 29.9 µM (inactive) and the AC50 [8] is reported as 7.59 µM (active). The AC50 [9] was 2.17 µM (active), the IC50 (Galanin receptor type 3) was 0.322 µM (active) and the IC50 (Jurkat) was > 80 µM (inactive). For the same compound, the IC50 [10] was > 80 µM (inactive) and the AC50 [11] was 5.87 µM (active).
With `O=C(Nc1nc2n(n1)C(c1ccccc1)CC(c1ccc(Cl)cc1)N2)c1ccco1` (configuration not stated) the IC50 [12] was 18.7 µM (active).
For `Cc1ccc(-c2csc(N3CCC(NS(=O)(=O)c4ccc5c(c4)OCCO5)CC3)n2)cc1`, the AC50 [13] was > 70 µM (inactive), the AC50 [14] was 21.6 µM (active) and the AC50 (INS1) was 5.51 µM (active). For the same compound, the AC50 (Cytochrome P450 3A4) was “inconclusive”, the AC50 [15] was 15 µM (active) and the AC50 [16] was 3.03 µM (active). For the same compound, the AC50 [17] was 2.15 µM (active).
In the case of `Nc1nc(Nc2ccccc2)nc2ccccc12`, the EC50 [18] is reported as 1.25 µM (active), the AC50 [19] is reported as 4.92 µM (active) and the IC50 [20] is reported as 0.444 µM (active). For the same compound, the EC50 [21] was 2.06 µM (active), the IC50 (cells [22]) was > 29.9 µM (inactive) and the EC50 [23] was 0.16 µM (active). The AC50 [24] was 26 µM (active) and the EC50 (cells [25]) was > 29.9 µM (inactive).
With `COc1ccc(-c2cc(C(F)(F)F)nc(S(=O)(=O)CCCC(=O)Nc3cc(C)on3)n2)cc1OC` the AC50 [26] was 15.2 µM (active), the AC50 [27] was 29.4 µM (active) and the AC50 [28] was 27.7 µM (active). For the same compound, the EC50 (cells [29]) was > 350 µM (not active), the AC50 [30] was 13.4 µM (active) and the AC50 [31] was 23.1 µM (active). For the same compound, the AC50 [32] was 20.7 µM (active), the AC50 [33] was 13.7 µM (active) and the EC50 (cells [34]) was > 350 µM (not active). For the same compound, the AC50 [35] was 30.1 µM (active), the AC50 [36] was 21.2 µM (active) and the AC50 [37] was 16.2 µM (active). For the same compound, the AC50 (Paired box protein Pax-8) was 9.94 µM (active).
For `N#C/C(=C\c1ccco1)C(=O)Nc1cccc2ncccc12`, the AC50 (cells [38]) was > 52 µM (inactive).
With `COc1ccccc1C(=O)Nc1ccc2c(c1)C(=O)N(C)C[C@H](OC)[C@@H](C)CN(CC1CC1)[C@@H](C)CO2` the AC50 [39] was 24.1 µM (active), the AC50 (HEK293) was 24.1 µM (active) and the AC50 (HeLa) was > 52 µM (inactive).
